# Results as given in BindingDB's records for doi:10.1021/jm051187d (Unimore, 2006).
# Molecular target: Thymidylate synthase (Escherichia coli (strain K12), UniProt P0A884)
# Assay: Thymidylate Synthase (TS) Assay
# Experimental: TS was assayed spectrophotometrically in the reaction buffer solution containing (6R, 6S)-5, 10-CH2H4folate. The reaction was initiated by the addition of an amount of enzyme yielding a change in absorbance at 340 nm of 0.016/min in the absence of inhibitor. Ki values were obtained from the linear least-squares fit of the residual activity as a function of inhibitor concentration, using suitable equations for competitive inhibition.
# Sequence of Thymidylate synthase (P0A884 whole entry): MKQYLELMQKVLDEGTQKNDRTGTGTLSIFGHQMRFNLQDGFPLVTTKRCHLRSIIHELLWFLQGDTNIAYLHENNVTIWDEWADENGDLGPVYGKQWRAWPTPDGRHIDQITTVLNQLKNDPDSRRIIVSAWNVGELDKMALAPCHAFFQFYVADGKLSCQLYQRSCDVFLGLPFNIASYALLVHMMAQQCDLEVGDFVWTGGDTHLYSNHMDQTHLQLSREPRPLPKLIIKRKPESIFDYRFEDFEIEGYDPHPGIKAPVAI
compound,measurement,value
"O=C1OC(c2cc(Br)c(O)c(Br)c2)(c2cc(Br)c(O)c(Br)c2)c2cccc3cccc1c23 [4,4-bis(3,5-dibromo-4-hydroxyphenyl)-3-oxatricyclo[7.3.1.0^{5,13}]trideca-1(12),5,7,9(13),10-pentaen-2-one]",Ki,> 11 mM
